Test results reported in publication PMC9019572, “Design, Synthesis, and Biological Evaluation of [1,2,4]triazolo[4,3-a] Pyrazine Derivatives as Novel Dual c-Met/VEGFR-2 Inhibitors” (Frontiers in Chemistry, 2022).

Experiments:
VEGFR-2 = VEGFR-2 (Homo sapiens, UniProt P35968); assay: VEGFR-2 kinase inhibition assay; type: biochemical
Experimental: (§1) The kinase assay was performed by Pratzer Biotechnology Co. Ltd. (Changsha, China).

A549 cells [1] = assay: Annexin V/PI apoptosis assay by flow cytometry; type: cell-based, human; details: 72 h; for Q1-LR: control 1.68%; for Q1-UL: control 1.87%; for Q1-UR: control 2.05%; for total apoptosis rate: control 3.73%; for Q1-LL: control 94.40%
Experimental: The cell apoptosis assay was performed by Pratzer Biotechnology Co. Ltd. (Changsha, China). After A549 cells were resuscitated, the cells were cultured in F-12 K medium containing 10% FBS and 1% pen/strep in incubator with 5% CO2 at 37°C. A549 cells, being in the logarithmic growth phase, were digested with […] and laid in six-well plates with a density of 2 × 10^5/well, and the cells were collected centrifugally after 72 h of treatment with each compound. The cells were washed twice with PBS, which was precooled to 4°C. Then the cells were suspended with 500 μl of buffer, and the concentration was adjusted to 10^6/ml. A 100-μl suspension was placed in a 5-ml flow tube, adding 5 µl of Annexin V-APC, adding 5 μl of propidiμm iodide, and the mixture was mixed and incubated at room temperature without light for 15 min detecting cell apoptosis by flow cytometry (FACS).
The assay of annexin V/PI staining was performed to deeper research the mechanism of apoptosis induced by compound 17l in A549 cells.

H460 cells = assay: Antiproliferative activity, H460; type: cell-based; details: Homo sapiens, NCI-H460
Experimental: (§2) The cell lines used in the experiment were available from the Cell Culture Collection of Chinese Academy of Sciences (Shanghai Institutes for Biological Sciences, Chinese Academy of Sciences). Referring to the previous experimental methods of our research, all cells were cultured in suitable medium such as DMEM or RPMI-1640 containing 10% fetal bovine serum at 37°C in 5% CO2 and propagated for 24 h. Then the compounds with different gradient concentrations were added into the medium and incubated for 72 h, and then MTT (thiazolyl blue tetrazolium bromide) with a concentration of 5 µg/ml was added to every well for 4 h at 37°C. The formazan crystals were dissolved in 100 µl of DMSO in each well. The absorbancy at 492 nm (for absorbance of MTT formazan) and 630 nm (for the reference wavelength) was measured with an ELISA reader. All compounds were tested three times in each of the cell lines. The results, expressed as inhibition rates or IC50 (half-maximal inhibitory concentration), were the averages of two determinations and calculated by using the Bacus Laboratories Incorporated Slide Scanner (Bliss) software.

EGFR^WT = EGFR^WT (Homo sapiens, UniProt P00533); assay: EGFR^wt kinase inhibition assay; type: biochemical
EGFR^WT, sequence (P00533 25-1210): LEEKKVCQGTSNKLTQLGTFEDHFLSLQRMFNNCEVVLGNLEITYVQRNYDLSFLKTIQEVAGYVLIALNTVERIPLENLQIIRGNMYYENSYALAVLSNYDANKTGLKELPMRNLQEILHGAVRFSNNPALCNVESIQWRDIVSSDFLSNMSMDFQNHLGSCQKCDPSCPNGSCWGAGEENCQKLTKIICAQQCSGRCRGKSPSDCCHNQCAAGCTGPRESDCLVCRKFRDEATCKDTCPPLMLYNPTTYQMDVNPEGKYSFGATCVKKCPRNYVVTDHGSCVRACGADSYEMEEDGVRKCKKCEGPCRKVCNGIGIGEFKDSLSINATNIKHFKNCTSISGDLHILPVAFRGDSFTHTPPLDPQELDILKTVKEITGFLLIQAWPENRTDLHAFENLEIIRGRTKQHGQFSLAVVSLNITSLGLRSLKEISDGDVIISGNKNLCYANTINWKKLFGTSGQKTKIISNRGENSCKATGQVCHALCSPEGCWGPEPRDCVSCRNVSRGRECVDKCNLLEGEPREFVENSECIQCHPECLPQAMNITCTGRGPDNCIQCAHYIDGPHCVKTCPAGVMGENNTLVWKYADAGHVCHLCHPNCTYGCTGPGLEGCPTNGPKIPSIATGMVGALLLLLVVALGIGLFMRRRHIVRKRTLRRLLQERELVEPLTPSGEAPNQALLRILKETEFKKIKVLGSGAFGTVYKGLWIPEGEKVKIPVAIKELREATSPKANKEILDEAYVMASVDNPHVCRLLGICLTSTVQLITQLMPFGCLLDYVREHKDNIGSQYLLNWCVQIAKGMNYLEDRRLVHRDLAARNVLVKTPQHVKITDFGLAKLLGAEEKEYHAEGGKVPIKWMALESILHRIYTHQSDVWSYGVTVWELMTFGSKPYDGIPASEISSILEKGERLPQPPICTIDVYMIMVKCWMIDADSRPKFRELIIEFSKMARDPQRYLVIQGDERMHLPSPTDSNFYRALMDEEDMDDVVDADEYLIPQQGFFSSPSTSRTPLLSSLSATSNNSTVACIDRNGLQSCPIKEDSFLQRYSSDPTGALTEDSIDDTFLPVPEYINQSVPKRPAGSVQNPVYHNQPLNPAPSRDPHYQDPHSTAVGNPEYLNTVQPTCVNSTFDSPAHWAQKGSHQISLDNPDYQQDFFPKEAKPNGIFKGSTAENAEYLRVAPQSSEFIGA
Experimental: as §1

PC-9 cells = assay: Antiproliferative activity, PC-9; type: cell-based; details: Homo sapiens
Experimental: as §2

A549 cells [2] = assay: MTT antiproliferative assay, A549; type: cell-based; details: Homo sapiens, 72 h;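 note: formazan read-out dissolved in DMSO, each compound assayed three times, IC50 computed with Bliss software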
Experimental: The cell lines used in the experiment were available from the Cell Culture Collection of Chinese Academy of Sciences (Shanghai Institutes for Biological Sciences, Chinese Academy of Sciences). […] The formazan crystals were dissolved in 100 µl of DMSO in each well. […] All compounds were tested three times in each of the cell lines. The results, expressed as inhibition rates or IC50 (half-maximal inhibitory concentration), were the averages of two determinations and calculated by using the Bacus Laboratories Incorporated Slide Scanner (Bliss) software.

ERK1/2 and AKT = assay: Western blot, downstream ERK1/2 and AKT phosphorylation in A549 cells; type: cell-based, human; details: A549, 24 h, 1.00 μM
Source text: (§3) Western blot was utilized to further analyze the effect of compound 17l on the downstream signal protein of c-Met and VEGFR-2. The detailed operations refer to the previous method of our research group ([Zhao et al., 2020]). […] The extracted protein was transferred to a PVDF membrane in ice bath conditions after 10% SDS polyacrylamide gel electrophoresis separating the protein by size. The PVDF membrane was rinsed with phosphate-buffered solution (PBST), shaken in a Petri dish three times for 3–5 min every time, and incubated with different target proteins (p-c-Met, p-VEGFR-2, p-ERK 1/2, p-AKT, and GADPH). Finally, the film was exposed and developed in a darkroom. Image Lab software (Molecular Dynamics, Sunnyvale, CA, USA) was utilized to analyze the shadow density of each band, which was then expressed as a percentage of GDPDH band density ([Zhao et al., 2020]).
(§4) We further verified the effect of compound 17l on c-Met and downstream signaling pathways. We treated A549 cell line with different doses of compound 17l for 24 h to measure its phosphorylation inhibition in different pathways.

H1975 cells = assay: Antiproliferative activity, H1975; type: cell-based; details: Homo sapiens, NCI-H1975
Experimental: as §2

p-c-Met (Tyr1003) = assay: Western blot, p-c-Met in A549 cells; type: cell-based, human; details: A549, 24 h, different concentrations
Source text: as §3, §4

MCF-7 cells = assay: MTT antiproliferative assay, MCF-7; type: cell-based; details: Homo sapiens, MCF7; MTT, 72 h, MCF-7 cells; read-out: IC50 MCF-7
Experimental: as §2

Hela cells = assay: MTT antiproliferative assay, Hela; type: cell-based; details: Homo sapiens; MTT, 72 h, Hela cells; read-out: IC50 Hela
Experimental: as §2

c-Met kinase = c-Met kinase (Homo sapiens, UniProt P08581); assay: c-Met kinase inhibition assay; type: biochemical
c-Met kinase, sequence (P08581 25-1390): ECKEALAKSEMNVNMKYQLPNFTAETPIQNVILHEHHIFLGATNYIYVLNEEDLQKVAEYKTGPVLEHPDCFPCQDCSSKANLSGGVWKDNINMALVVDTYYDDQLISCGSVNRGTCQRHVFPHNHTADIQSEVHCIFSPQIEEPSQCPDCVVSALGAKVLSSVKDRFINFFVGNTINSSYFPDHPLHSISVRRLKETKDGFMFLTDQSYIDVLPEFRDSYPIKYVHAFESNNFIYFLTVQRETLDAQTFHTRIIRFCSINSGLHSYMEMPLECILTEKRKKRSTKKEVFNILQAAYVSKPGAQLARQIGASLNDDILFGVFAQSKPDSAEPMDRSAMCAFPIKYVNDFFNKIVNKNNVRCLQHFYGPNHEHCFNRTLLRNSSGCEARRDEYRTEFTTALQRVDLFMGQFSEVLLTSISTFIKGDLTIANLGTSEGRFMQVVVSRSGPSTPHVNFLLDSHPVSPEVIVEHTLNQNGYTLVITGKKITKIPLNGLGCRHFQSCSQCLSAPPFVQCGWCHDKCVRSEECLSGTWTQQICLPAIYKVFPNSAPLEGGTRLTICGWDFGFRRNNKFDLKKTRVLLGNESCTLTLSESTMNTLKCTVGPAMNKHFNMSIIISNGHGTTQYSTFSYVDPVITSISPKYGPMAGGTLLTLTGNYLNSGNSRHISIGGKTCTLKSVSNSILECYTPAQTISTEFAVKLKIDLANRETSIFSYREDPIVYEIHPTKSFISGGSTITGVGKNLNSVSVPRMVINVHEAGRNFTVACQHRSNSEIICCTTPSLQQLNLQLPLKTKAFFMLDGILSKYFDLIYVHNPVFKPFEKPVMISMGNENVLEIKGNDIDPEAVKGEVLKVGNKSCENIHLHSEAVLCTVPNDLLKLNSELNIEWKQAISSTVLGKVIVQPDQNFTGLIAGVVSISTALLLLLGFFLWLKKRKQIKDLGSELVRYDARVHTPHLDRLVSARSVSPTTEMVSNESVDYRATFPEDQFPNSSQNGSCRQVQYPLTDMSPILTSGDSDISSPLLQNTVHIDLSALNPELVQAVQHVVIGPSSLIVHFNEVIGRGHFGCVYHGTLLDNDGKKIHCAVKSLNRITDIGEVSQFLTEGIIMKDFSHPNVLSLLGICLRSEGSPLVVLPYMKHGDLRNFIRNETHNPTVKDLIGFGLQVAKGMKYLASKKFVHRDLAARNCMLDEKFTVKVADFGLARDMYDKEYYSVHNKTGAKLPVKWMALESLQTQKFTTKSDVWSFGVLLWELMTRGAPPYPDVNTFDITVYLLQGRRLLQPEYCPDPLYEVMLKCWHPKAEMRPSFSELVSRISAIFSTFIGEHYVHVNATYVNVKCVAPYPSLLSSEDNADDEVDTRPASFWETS

A549 cells [3] = assay: Cell cycle assay by flow cytometry; type: cell-based, human; details: A549, 1.0 μM, 72 h; control 61.14%
Experimental: A549 cells were placed in 12-well plates at a density of 10^6/well with F-12 K containing 10% FBS as the medium, and the experiment was conducted on alternate days. Cells (1–5×10^6) were collected, centrifuged at 1,500 rpm for 5 min to remove the supernatant, washed with PBS twice, and gently mixed with 200 μl of cell cycle rapid detection reagent to make a single-cell suspension, which was detected by flow cytometry within 1 h.
We treated A549 cells with 1.0 μM compound 17l for 72 h and determined its effect on cell cycle by flow cytometry to further reveal the growth inhibition mechanism of the target compound on tumor cells. […] At the same time, the content of cell block rate decreased in S phase, but the change in G2/M phase was not obvious.

p-VEGFR-2 (Tyr1059) = assay: Western blot, p-VEGFR-2 in A549 cells; type: cell-based, human; details: A549, 24 h, different concentrations
Source text: as §3, §4

sheep red blood cells = assay: Hemolytic test; details: 16–256 μg/ml, at the highest concentration within the study range
Experimental: The hemolytic toxicity of 17l was studied with 1% Triton and 0.9% normal saline, and the former was a positive control, and the latter was a negative control. […] (1%), 0.9% normal saline, and compound 17l of different concentrations prepared in 0.9% normal saline reacted with the prepared sheep red blood cells, respectively. Photos were taken, and the absorbance value was measured by ultraviolet spectrophotometer at a wavelength of 540 nm, and hemolysis ratio (hemolysis %) was calculated according to the following formula ([Guo et al., 2017]). The experiment was repeated twice in parallel. Hemolysis %=Abs(experimental group)−Abs(negative control)/Abs(positive control)−Abs(negative control)
The best compound 17l with antiproliferative activity and kinase inhibition activity was selected to detect its hemolytic toxicity at a gradient concentration of 16–256 μg/ml, and the safety of intravenous administration was preliminarily investigated. […] Its hemolytic toxicity meets the requirements of intravenous administration, which provides a basis for further in vivo research.

VEGFR-2, sequence (P35968 20-1356): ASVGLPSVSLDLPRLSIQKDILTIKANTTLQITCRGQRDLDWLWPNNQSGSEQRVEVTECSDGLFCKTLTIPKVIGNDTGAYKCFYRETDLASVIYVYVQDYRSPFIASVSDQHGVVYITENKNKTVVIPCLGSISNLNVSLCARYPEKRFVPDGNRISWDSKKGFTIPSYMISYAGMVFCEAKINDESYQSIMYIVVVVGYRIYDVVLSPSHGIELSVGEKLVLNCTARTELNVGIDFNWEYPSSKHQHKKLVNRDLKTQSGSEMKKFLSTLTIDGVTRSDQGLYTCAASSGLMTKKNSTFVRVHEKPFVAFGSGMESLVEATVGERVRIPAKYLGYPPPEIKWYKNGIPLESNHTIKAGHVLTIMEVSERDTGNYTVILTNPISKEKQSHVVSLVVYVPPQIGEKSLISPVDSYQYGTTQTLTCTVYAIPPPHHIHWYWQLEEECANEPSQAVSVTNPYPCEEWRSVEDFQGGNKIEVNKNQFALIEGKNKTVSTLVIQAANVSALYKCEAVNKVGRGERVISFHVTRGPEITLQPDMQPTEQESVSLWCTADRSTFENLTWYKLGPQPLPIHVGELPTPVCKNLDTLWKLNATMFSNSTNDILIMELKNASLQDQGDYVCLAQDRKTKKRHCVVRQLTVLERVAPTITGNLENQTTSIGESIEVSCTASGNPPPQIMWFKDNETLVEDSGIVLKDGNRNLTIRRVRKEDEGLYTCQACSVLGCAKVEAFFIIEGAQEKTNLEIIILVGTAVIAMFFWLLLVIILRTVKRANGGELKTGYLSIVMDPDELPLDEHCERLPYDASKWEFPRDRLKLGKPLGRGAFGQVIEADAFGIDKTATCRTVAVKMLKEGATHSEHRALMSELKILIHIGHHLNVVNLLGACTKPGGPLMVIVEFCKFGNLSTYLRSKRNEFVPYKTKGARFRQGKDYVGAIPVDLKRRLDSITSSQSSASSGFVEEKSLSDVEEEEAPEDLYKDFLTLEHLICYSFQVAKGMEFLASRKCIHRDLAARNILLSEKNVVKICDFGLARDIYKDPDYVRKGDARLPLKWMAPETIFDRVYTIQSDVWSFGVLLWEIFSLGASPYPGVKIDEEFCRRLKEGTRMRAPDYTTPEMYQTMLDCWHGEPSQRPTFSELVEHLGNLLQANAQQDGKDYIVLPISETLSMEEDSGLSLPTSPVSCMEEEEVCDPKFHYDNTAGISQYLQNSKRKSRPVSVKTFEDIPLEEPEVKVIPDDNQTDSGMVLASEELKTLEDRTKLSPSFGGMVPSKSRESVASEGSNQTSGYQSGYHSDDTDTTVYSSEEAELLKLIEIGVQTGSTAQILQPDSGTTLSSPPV

Cc1nnc2c(Oc3ccc(NC(=O)c4cnn(-c5ccc(Cl)cc5)c4C(F)(F)F)cc3F)nccn12 [17l]
IC50 (VEGFR-2): 2600 nM
Q1-LR (A549 cells [1]; A549, 0.25 μM): 2.15%
Q1-UL (A549 cells [1]; A549, 0.25 μM): 4.27%
Q1-UR (A549 cells [1]; A549, 0.25 μM): 2.71%
total apoptosis rate (A549 cells [1]; A549, 0.25 μM): 4.86%
Q1-LL (A549 cells [1]; A549, 0.25 μM): 90.88%
Q1-LR (A549 cells [1]; A549, 0.50 μM): 3.07%
Q1-UL (A549 cells [1]; A549, 0.50 μM): 1.53%
Q1-UR (A549 cells [1]; A549, 0.50 μM): 3.38%
total apoptosis rate (A549 cells [1]; A549, 0.50 μM): 6.45%
Q1-LL (A549 cells [1]; A549, 0.50 μM): 92.02%
Q1-LR (A549 cells [1]; A549, 1.00 μM): 5.52%
Q1-UL (A549 cells [1]; A549, 1.00 μM): 0.30%
Q1-UR (A549 cells [1]; A549, 1.00 μM): 6.09%
total apoptosis rate (A549 cells [1]; A549, 1.00 μM): 11.61%
Q1-LL (A549 cells [1]; A549, 1.00 μM): 88.09%
IC50 (H460 cells): 5860 ± 770 nM
IC50 (EGFR^WT): > 10000 nM
IC50 (PC-9 cells): 38200 ± 1580 nM
IC50 (A549 cells [2]): 980 ± 80 nM
phosphorylation protein of downstream signals ERK1/2 and AKT (ERK1/2 and AKT): significantly inhibited
IC50 (H1975 cells): 15300 ± 1180 nM
protein levels of p-c-Met (Tyr1003) (p-c-Met (Tyr1003)): inhibited
IC50 (MCF-7 cells): 1050 ± 170 nM
IC50 (Hela cells): 1280 ± 250 nM
IC50 (c-Met kinase): 26 nM
cell block rate in G0/G1 phase (A549 cells [3]): 76.14%
inhibitory effect on p-VEGFR-2 (Tyr1059) (p-VEGFR-2 (Tyr1059)): not obvious
hemolytic rate (sheep red blood cells): less than 5%
